The nature of data set [1]: Partition coefficient (logP) (HPLC). The following applies: octanol/water.
Data set [2] in a line: Partition coefficient (logP). The following applies: octanol/water.
Data set [3] in a line: HPLC capacity factor (k). It counts as ADME.

In general, logP refers to a log measure of how a compound divides between an organic and an aqueous phase. The low end stands for lower lipophilicity, the high end for higher lipophilicity. Regarding `c1ccc2ccccc2c1`, the “Log k'w” value amounted to 3.06. For the same molecule, the logP in data set [1] was 3.51.
In the case of `Oc1cc(Cl)cc(Cl)c1`, the “Log k'w” value came to 3.4. This molecule also displayed a logP in data set [2] of 3.68. In data set [1], this molecule showed a logP of 3.88.
Regarding `CSc1ncnc2c1ncn2[C@@H]1O[C@H](CO)[C@@H](O)[C@H]1O`, the “Log k'w” value worked out at 0.19. The same molecule came in with a logP in data set [1] of 0.34.
`Oc1cccc(Cl)c1`: the “Log k'w” value is 2.49.
With `Brc1cnc2ccccc2c1`, the “Log k'w” value turned out to be 2.54. The lipophilicity (logP) in data set [1] was found to be 2.93.
`CC(=O)Nc1ccc(O)cc1` [ACETAMINOPHEN]: the “Log K'w” value in data set [3] was -0.02. Moreover, the logP in data set [2] stood at 0.51; in data set [1], 0.11.
With `CC(=O)c1ccccc1` [ACETOPHENONE], the “Log k'w” value is given as 1.31.
In the case of `Oc1ncnc2[nH]ncc12` [ALLOPURINOL], in data set [3], the “Log K'w” value was -0.89. Also, the lipophilicity (logP) in data set [1] is -0.85.
For the molecule `Cc1cc(=O)n(-c2ccccc2)n1C` [ANTIPYRINE], in data set [3], the “Log K'w” value was 0.09.
As for `c1ccc(-c2ccc(C(c3ccccc3)n3ccnc3)cc2)cc1` (stereo unspecified) [BIFONAZOLE], the “Log k'w” value is listed as 4.37. The logP in data set [1] came to 4.95.
Turning to `O=C1CN=C(c2ccccn2)c2cc(Br)ccc2N1` [BROMAZEPAM], in data set [3], the “Log K'w” value is reported as 1.13. Moreover, the logP amounted to 1.65 in data set [2] and 1.38 in data set [1].
Consider `Cn1c(=O)c2c(ncn2C)n(C)c1=O` [CAFFEINE], for which the “Log k'w” value is -0.31.
As to `NC(=O)N1c2ccccc2C=Cc2ccccc21` [CARBAMAZEPINE], in data set [3], the “Log K'w” value is recorded as 1.7. In addition, the logP in data set [2] came to 2.19; in data set [1], 2.01.
As to `Clc1ccccc1C(c1ccccc1)(c1ccccc1)n1ccnc1` [CLOTRIMAZOLE], the “Log k'w” value turned out to be 4.13.
For `C[C@@H]1C[C@H]2[C@@H]3CCC4=CC(=O)C=C[C@]4(C)[C@@]3(F)[C@@H](O)C[C@]2(C)[C@@]1(O)C(=O)CO` [DEXAMETHASONE], the “Log k'w” value was 2.03. This molecule also came in with a lipophilicity (logP) in data set [1] of 2.37.
On to `CC/C(=C(/CC)c1ccc(O)cc1)c1ccc(O)cc1` [DIETHYLSTILBESTROL], for which the “Log k'w” value came out at 4.16. This molecule also yielded a logP in data set [1] of 4.72.
As for `C[C@]12CC[C@@H]3c4ccc(O)cc4CC[C@H]3[C@@H]1CC[C@@H]2O` [ESTRADIOL], the “Log k'w” value was determined as 3.34. Also, the logP in data set [1] was 3.82.
Regarding `COC1=CC(=O)C[C@@H](C)[C@]12Oc1c(Cl)c(OC)cc(OC)c1C2=O` [GRISEOFULVIN], the “Log k'w” value is reported as 2.21. Also, the logP in data set [1] stood at 2.57.
Take `CC(=O)OCC(=O)[C@@]1(O)CC[C@H]2[C@@H]3CCC4=CC(=O)CC[C@]4(C)[C@H]3[C@@H](O)C[C@@]21C` [HYDROCORTISONE ACETATE]: the “Log k'w” value turned out to be 1.93. Moreover, the logP in data set [2] was 2.19. In addition, the logP in data set [1] came to 2.26.
Consider `C[C@]12CCC(=O)C=C1CC[C@@H]1[C@@H]2[C@@H](O)C[C@@]2(C)[C@H]1CC[C@]2(O)C(=O)CO` [HYDROCORTISONE], for which the “Log k'w” value is 1.43.
`O=C1Nc2ccc(Cl)cc2C(c2ccccc2Cl)=NC1O` (stereo unspecified) [LORAZEPAM]: in data set [3], the “Log K'w” value amounted to 2.36. The molecule further had a logP in data set [1] of 2.74.
For `CN1C(=O)C(O)N=C(c2ccccc2Cl)c2cc(Cl)ccc21` (stereo unspecified) [LORMETAZEPAM], the “Log k'w” value is reported as 2.4. The lipophilicity (logP) in data set [2] was 2.72. Also, the logP in data set [1] turned out to be 2.78.
Turning to `Cc1ncc([N+](=O)[O-])n1CCO` [METRONIDAZOLE], the “Log K'w” value in data set [3] is -0.32. In addition, in data set [1], the logP is -0.22.
With `O=[N+]([O-])c1ccc(/C=N/O)o1` [NIFUROXIME], the “Log k'w” value turned out to be 1.11. The molecule further gave a lipophilicity (logP) in data set [2] of 1.28. Further, the logP in data set [1] turned out to be 1.36.
Regarding `NC(=O)N/N=C/c1ccc([N+](=O)[O-])o1` [NITROFURAZONE], the “Log k'w” value came out at 0.1. The logP in data set [1] turned out to be 0.24.
Regarding `CC(=O)CCCCn1c(=O)c2c(ncn2C)n(C)c1=O` [PENTOXIFYLLINE], the “Log k'w” value was 0.16. The same molecule registered a logP in data set [2] of 0.29. This molecule had a logP in data set [1] of 0.31.
Regarding `C[C@]12C=CC(=O)C=C1CC[C@@H]1[C@@H]2[C@@H](O)C[C@@]2(C)[C@H]1CC[C@]2(O)C(=O)CO` [PREDNISOLONE], the “Log k'w” value stood at 1.54. Also, in data set [1], the logP was 1.83.
The matching figures for `C[C@]12C=CC(=O)C=C1CC[C@@H]1[C@@H]2C(=O)C[C@@]2(C)[C@H]1CC[C@]2(O)C(=O)CO` [PREDNISONE]: 1.21 and 1.47.
In data set [1], `c1ccc2ncccc2c1` [QUINOLINE] yielded a logP of 1.85.
Turning to `C[C@]12CC[C@H]3[C@@H](CCC4=CC(=O)CC[C@@]43C)[C@@H]1CC[C@@H]2O` [TESTOSTERONE], the “Log k'w” value was 2.74.
Regarding `CS(=O)(=O)c1ccc([C@@H](O)[C@@H](CO)NC(=O)C(Cl)Cl)cc1` [THIAMPHENICOL], the “Log k'w” value was -0.24. In data set [2], this molecule displayed a logP of -0.27. Moreover, the logP in data set [1] is -0.13.
The matching figures for `Cc1cccc(N(C)C(=S)Oc2ccc3ccccc3c2)c1` [TOLNAFTATE]: 4.55, 5.4 and 5.15.
